In PMC7447621, “Chemoenzymatic synthesis of daptomycin analogs active against daptomycin-resistant strains” (Applied Microbiology and Biotechnology, 2020):
“And” between values parts separate entries of the source, which are not always exact repeats. Equal entries are not always repeated. Numbered stars: 1 amine (or outer) side, 2 acyl side, 3 side chain; on linkers, the order of the positions; unused ones are H or OH. Bridge positions count the residues as written; N and C are the ends. Square brackets hold non-standard residues; d marks the D form. Peptide text beside a SMILES is read from it. * marks the point of attachment. X5 = C=C(C)/C=C/C(C)c1[nH]c2ccccc2c1C[C@H](N[*:1])C(=O)[*:2]; X1 = O=C([C@H](Cc1c[nH]c2cc(CC3=CCCCC3)ccc12)N[*:1])[*:2]; X3 = C=C/C=C/Cc1[nH]c2ccccc2c1C[C@H](N[*:1])C(=O)[*:2]; Glu(3R-Me) = C[C@H](CC(=O)O)[C@H](N)C(=O)O; Kyn = Nc1ccccc1C(=O)C[C@H](N)C(=O)O; Decanoyl = CCCCCCCCCC(=O)*; Orn = NCCC[C@H](N)C(=O)O

Experiments:
[1] = test system: E. faecalis (R712); settings: DapR, BEI HM-335; MIC90, broth microdilution, MHB + 50 mg L^−1 calcium, 35 °C, 22 h, A600, triplicate
[2] = test system: S. aureus (hVISA, SR3777); settings: DapS, BEI NR-50509; MIC90, broth microdilution, MHB + 50 mg L^−1 calcium, 35 °C, 22 h, A600, triplicate
[3] = test system: S. epidermidis (ATCC 12228); settings: DapS; MIC90, broth microdilution, MHB + 50 mg L^−1 calcium, 35 °C, 22 h, A600, triplicate
[4] = test system: S. aureus (hVISA, SR220); settings: DapS, VISA, BEI NR-50512; MIC90, broth microdilution, MHB + 50 mg L^−1 calcium, 35 °C, 22 h, A600, triplicate
[5] = type: physicochemical
Source text: These differences in activity could be due to differences between the structures of Dap and its analogs either in complex with Gram-positive membranes or in their unbound form. However, with no three-dimensional structure data for the analogs, only conjecture can be offered as to the cause. […] [2004]; Jung et al. [2004]), the benzene ring of Trp is thought to stick out away from the peptide core and lie roughly parallel to the main axis of the acyl tail. […] [2017]), which also suffered from a decrease in activity compared with its N1-normal-prenylated regioisomer. Conversely, the diene moieties attached at the C2 position are prone to conjugate addition reactions which would prevent the proper binding conformation or even enable degradation pathways. Therefore, to check their stability, all purified Dap analogs were reinjected on RP-HPLC after their structural and activity characterization (see Supporting Information Fig. S3). […] While future kinetic and engineering studies will likely answer these questions, the SAR identified in this study will inform future Dap development efforts using the […]-based diversification scheme.

[6] = test system: S. aureus (SAUSA300_1715 NE1656); settings: DapR, strain JE2 transposon mutant NE1656, BEI NR-48198; MIC90, broth microdilution, MHB + 50 mg L^−1 calcium, 35 °C, 22 h, A600, triplicate
[7] = test system: E. faecalis (hVRE, ATCC 700802); settings: for MIC: DapS, VRE, MIC90, broth microdilution, MHB + 50 mg L^−1 calcium, 35 °C, 22 h, A600, triplicate
[8] = test system: S. aureus (SAUSA300_1713 NE573); settings: DapR, strain JE2 transposon mutant NE573, BEI NR-47116; MIC90, broth microdilution, MHB + 50 mg L^−1 calcium, 35 °C, 22 h, A600, triplicate
[9] = test system: E. faecalis (S613); settings: DapS, BEI HM-334; MIC90, broth microdilution, MHB + 50 mg L^−1 calcium, 35 °C, 22 h, A600, triplicate
[10] = test system: S. aureus (hVISA, SR4035); settings: DapS, BEI NR-50510; MIC90, broth microdilution, MHB + 50 mg L^−1 calcium, 35 °C, 22 h, A600, triplicate
[11] = test system: S. aureus (ATCC 25923); settings: DapS strain; MIC90, broth microdilution, MHB + 50 mg L^−1 calcium, inoculum 1×10^5–5×10^5 CFU/mL, 35 °C, 22 h, A600, triplicate; converted from μM
[12] = test system: S. aureus (MRSA, ATCC 700787); settings: DapS, MIC90, broth microdilution, MHB + 50 mg L^−1 calcium, 35 °C, 22 h, A600, triplicate
[13] = test system: DapR S. aureus

Row | SMILES | MIC [1] | MIC [2] | MIC [3] | MIC [4] | stability of the purified product (RP-HPLC chromatogram) [5] | MIC [6] | MIC [7] | MIC [8] | MIC [9] | MIC [10] | MIC [11] | MIC [12] | fold enhanced activity (compared with Dap) ([7]; vancomycin-resistant Enterococcus, Table 1, Fig. S1) | MIC range ([13]; DapR S. aureus strains (Table 1), range over the named analogs and strains) | fold improvement in antibacterial activity over Dap ([13]; DapR S. aureus, relative potency, Fig. S1)
1 | C=C/C=C/Cc1[nH]c2ccccc2c1C[C@H](NC(=O)CCCCCCCCC)C(=O)N[C@H](CC(N)=O)C(=O)N[C@@H](CC(=O)O)C(=O)N[C@@H]1C(=O)NCC(=O)N[C@@H](CCCN)C(=O)N[C@@H](CC(=O)O)C(=O)N[C@H](C)C(=O)N[C@@H](CC(=O)O)C(=O)NCC(=O)N[C@H](CO)C(=O)N[C@@H]([C@H](C)CC(=O)O)C(=O)N[C@@H](CC(=O)c2ccccc2N)C(=O)O[C@@H]1C [compound 45, C2-15-Dap] (Decanoyl-[X3][dN]DTG[Orn]D[dA]DG[dS][Glu(3R-Me)][Kyn]; ester 4-C) | >8.4 µg/mL | 16.9 µg/mL | 16.9 µg/mL | 33.7 µg/mL | significant degradation | >8.4 µg/mL | 33.7 µg/mL | >8.4 µg/mL | >8.4 µg/mL | >33.7 µg/mL | 16.9 µg/mL | >33.7 µg/mL |  |  | 
2 | C=C(C)/C=C/C(C)c1[nH]c2ccccc2c1C[C@H](NC(=O)CCCCCCCCC)C(=O)N[C@H](CC(N)=O)C(=O)N[C@@H](CC(=O)O)C(=O)N[C@@H]1C(=O)NCC(=O)N[C@@H](CCCN)C(=O)N[C@@H](CC(=O)O)C(=O)N[C@H](C)C(=O)N[C@@H](CC(=O)O)C(=O)NCC(=O)N[C@H](CO)C(=O)N[C@@H]([C@H](C)CC(=O)O)C(=O)N[C@@H](CC(=O)c2ccccc2N)C(=O)O[C@@H]1C (stereo partly drawn) [compound 47, C2R-18-Dap] (Decanoyl-[X5][dN]DTG[Orn]D[dA]DG[dS][Glu(3R-Me)][Kyn]; ester 4-C) | >34.3 µg/mL | 34.3 µg/mL | 34.3 µg/mL | >34.3 µg/mL |  | >34.3 µg/mL | 34.3 µg/mL | >34.3 µg/mL | >34.3 µg/mL |  | >34.3 µg/mL | >34.3 µg/mL |  |  | 
3 | CCCCCCCCCC(=O)N[C@@H](Cc1c[nH]c2cc(CC3=CCCCC3)ccc12)C(=O)N[C@H](CC(N)=O)C(=O)N[C@@H](CC(=O)O)C(=O)N[C@@H]1C(=O)NCC(=O)N[C@@H](CCCN)C(=O)N[C@@H](CC(=O)O)C(=O)N[C@H](C)C(=O)N[C@@H](CC(=O)O)C(=O)NCC(=O)N[C@H](CO)C(=O)N[C@@H]([C@H](C)CC(=O)O)C(=O)N[C@@H](CC(=O)c2ccccc2N)C(=O)O[C@@H]1C [compound 52, C6-20-Dap] (Decanoyl-[X1][dN]DTG[Orn]D[dA]DG[dS][Glu(3R-Me)][Kyn]; ester 4-C) | 6.2 µg/mL |  |  | 0.5 µg/mL |  | 0.2 µg/mL |  | 0.4 µg/mL | 0.3 to 0.6 µg/mL and 0.4 µg/mL |  |  |  | 5–15 fold | 0.2 to 0.5 µg/mL | 30–80 fold
